Laboratory results as given in patent US20250197337A1, “CONVERSION OF TRIACETIC ACID LACTONE TO POTASSIUM SORBATE” (priority 2023, published 2025).

Key:
[1] = room temperature; cited from earlier work
[2] = tested on: E. coli O157:H7 (ATCC 35150); conditions: separate study; cited from earlier work
Penicillium italicum = conditions: cited from earlier work
Escherichia coli 1-894-1 = experiment: microbe, parasite or virus in culture
Protocol: Isolated colonies of Escherichia coli 1-894-1 (ATCC, Manassas, Virginia, USA) were picked from the bacterial culture plate and inoculated into 4-5 mL of TSB liquid medium for all bacterial strains. TSB liquid medium was prepared by dissolving a mixture of 17.0 g pancreatic digest of casein, 3.0 g papaic digest of soybean, 2.5 g dextrose, 5.0 g sodium chloride, and 2.5 g dipotassium phosphate in a final volume of 1,000 mL of distilled water, stirring for at least for 20 minutes, and then sterilizing under high pressure ([…] for 20 minutes at 121° C.). To achieve log phase growth, bacterial cultures were incubated at 37° C. for 2-6 hours based on the 0.5 McFarland standard, which corresponds to approximately 1.5×10^8 CFU/mL when the optical density of a bacterial suspension ranged from 0.08 to 0.1. A 1:20 dilution was made by adding 2.0 ml of the original suspension to 38 mL of PBS buffer, and then a 1:10 dilution was prepared by adding 0.01 ml to each well to obtain a final concentration of about 5.0×10^5 CFU/mL.
(§1) To assess the effectiveness of KS against bacteria and fungi, several tests were conducted in accordance with the Antimicrobial Susceptibility Testing Standards outlined by the Clinical and Laboratory Standards Institute (Malvern, Pennsylvania, USA) (CLSI Mo2-A12, 2015) with some modifications, including the minimal inhibitory concentration (MIC), and an agar diffusion disc test. Potassium sorbate solutions with concentrations ranging from 0.5 to 8.0 mg/ml were combined with bacterial cells (10^5 CFU/mL) and fungal spores (105 conidia/mL) in TSB medium with a pH adjusted to 5.5 for bacteria and in Potato Dextrose Broth (“PDB”) medium (with an original pH of 5.5) for fungi. They were then incubated at 37° C. (for E. coli) for 24 hours and 25° C. (for P. chrysogenum) for 6 days. To determine the minimum inhibitory concentration (“MIC”) of antimicrobial substances, optical density (“OD”) at 600 nm was measured through a Bioscreen C device (Oy Growth Curves Ab Ltd., Turku, Finland) using turbidimetric measurements. The MIC refers to the lowest concentration of antimicrobial that prevents visible growth of microorganisms after incubation. For fungal growth, the MIC was determined based on the inhibition of mycelial growth. The negative control was added the same volume of deionized water without potassium sorbate to observe the growth of bacteria and fungi. Furthermore, to determine assess the survivability of cells and spores when exposed to potassium sorbate for 18 hours, microbial counts were expressed as the logarithm of colony forming units per ml (log CFU/mL). Each measurement was performed in triplicate.

E. coli = conditions: concentration of >3 mg/ml; 24 hours at 37° C.
Penicillium chrysogenum = experiment: microbe, parasite or virus in culture
Protocol: as §1

bacteria and fungi = conditions: against bacteria and fungi
Protocol: as §1

P. chrysogenum = conditions: for spores of P. chrysogenum: concentrations greater than 4 mg/ml, after 6 days of incubation
Protocol: as §1

[3] = previous study; cited from earlier work

C/C=C/C=C/C(=O)[O-].[K+] [KS, potassium sorbate]
solubility in water [1]: 58.5 g per 100 ml | MIC against E. coli O157:H7 (ATCC 35150) [2]: 1600 µg/mL | MIC against Penicillium italicum (Penicillium italicum): 15000 µg/mL

C/C=C/C=C\C(=O)[O-].[K+] [TAL-derived KS, cis-2, trans-4 potassium sorbate]
inhibitory effect on the growth of E. coli (Escherichia coli 1-894-1; concentration of 2 mg/ml): mild inhibitory effect | inhibitory effect on the growth of E. coli (Escherichia coli 1-894-1; concentration of 4 mg/ml): significant inhibitory effect | inhibitory effects against E. coli (CFU count) (E. coli): significant inhibitory effects | antifungal activities compared with commercial KS (Penicillium chrysogenum): same antifungal activities as commercial KS | MIC against P. chrysogenum (preventing mycelial growth) (Penicillium chrysogenum; PDB medium pH 5.5, 25° C., 6 days): 6000 µg/mL | antimicrobial activity compared with commercial KS (bacteria and fungi): comparable antimicrobial activities | inhibition of P. chrysogenum growth as compared to C-KS (P. chrysogenum; concentration of 6 mg/mL, 6 days of incubation): significant inhibition | spores of P. chrysogenum (P. chrysogenum): significantly decreased

C/C=C/C=C/C(=O)[O-].[K+] [commercial KS, trans, trans-2,4-hexadienoic acid potassium salt]
MIC (Escherichia coli 1-894-1; Escherichia coli, 18941, 24 h, pH 5.5, read-out: MIC against E. coli): 2000 to 4000 µg/mL | inhibitory effect on the growth of E. coli (Escherichia coli 1-894-1; concentration of 2 mg/ml): mild inhibitory effect | inhibitory effect on the growth of E. coli (Escherichia coli 1-894-1; concentration of 4 mg/ml): significant inhibitory effect | inhibitory effects against E. coli (CFU count) (E. coli): significant inhibitory effects | MIC (Penicillium chrysogenum; Penicillium chrysogenum, 144 h, pH 5.5, read-out: MIC against P. chrysogenum (preventing mycelial growth)): 8000 µg/mL | spores of P. chrysogenum (P. chrysogenum): significantly decreased

C/C=C/C=C/C(=O)[O-].[K+] [trans, trans-potassium sorbate]
antimicrobial activity compared with the mixture of isomers [3]: higher antimicrobial activity than the mixture of isomers
